Results from patent US20260217652A1, “PHENYL-SUBSTITUTED HETEROARYL COMPOUND AND PHARMACEUTICAL COMPOSITION COMPRISING SAME, PREPARATION METHOD THEREFOR AND USE THEREOF” (SHANGHAI MEIYUE BIOTECH DEVELOPMENT CO., LTD., priority 2023, published 2026).

system: not listed separately; assay: In vitro liver microsome stability, mouse; type: in vitro ADME; settings: liver microsomes, 0.5 mg/mL microsomes, 1 μM compound, NADPH, 37° C., read-out: Mouse liver microsomes Half-life T1/2
Description: (§1) The reference compound used in this experiment was Ketanserin, and the final concentration of microsomes in the experimental system was 0.5 mg/mL. The PBS buffer was a 50 mM K2HPO4 buffer. The concentration of the test compound was 1 μM. The microsomes were added to PBS, and the control/test compounds were respectively added to the corresponding reaction systems, mixed thoroughly, and pre-incubated in a 37° C. water bath for 5 minutes. The reaction was initiated by adding 20 mM NADPH solution under 37° C. water bath conditions (for the No NADPH samples, an equal volume of PBS solution was used as a substitute for the 20 mM NADPH solution). At the reaction time points of 0 min, 10 min, 30 mun, 60 min, and 90 min, 30 μL of reaction samples were taken from each reaction system (for the No NADPH samples, sampling was performed at 0 min and 90 min), and the reaction was immediately terminated by adding 300 μL of the internal standard acetonitrile solution. After centrifugation at 4000 rpm, the supernatant was taken and mixed thoroughly with an equal volume of pure water. The samples at each time point were analyzed by LC-MS/MS (AB Triple Quard 5500) to determine the compound content, and the T1/2 was calculated.

Row | SMILES | half-life at 1 μM
1 | Cc1cnc(-c2ccc(F)c([C@@](C)(O)CO)c2F)cc1-n1c(C)cc(OCc2ncc(F)cc2F)c(Cl)c1=O (single isomer, unassigned) [Compound 65-P4] | > 4.66 h
2 | Cc1cnc(-c2cccc(C(=O)O)c2)cc1-n1c(C)cc(OCc2ncc(F)cc2F)c(Cl)c1=O [Compound 1] | > 4.66 h
3 | CNC(=O)c1cccc(-c2cc(-n3c(C)cc(OCc4ncc(F)cc4F)c(Cl)c3=O)c(C)cn2)c1 [Compound 2] | 3.96 h

system: not listed separately; assay: In vitro liver microsome stability, human; type: in vitro ADME; settings: liver microsomes, 0.5 mg/mL microsomes, 1 μM compound, NADPH, 37° C., read-out: Human liver microsomes Half-life T1/2
Description: as §1

Row | SMILES | half-life at 1 μM
4 | Cc1cnc(-c2ccc(F)c([C@@](C)(O)CO)c2F)cc1-n1c(C)cc(OCc2ncc(F)cc2F)c(Cl)c1=O (single isomer, unassigned) [Compound 65-P4] | > 4.66 h
5 | Cc1cnc(-c2cccc(C(=O)O)c2)cc1-n1c(C)cc(OCc2ncc(F)cc2F)c(Cl)c1=O [Compound 1] | > 4.66 h
6 | CNC(=O)c1cccc(-c2cc(-n3c(C)cc(OCc4ncc(F)cc4F)c(Cl)c3=O)c(C)cn2)c1 [Compound 2] | 4.14 h

target: T1, p38 MAPK/ATF2 (Homo sapiens, UniProt Q16539); assay: In vitro activity assay of p38 MAPK/ATF2 (HTRF); type: biochemical; settings: p38α, Human ATF2 Protein, ATP; 35 min at 20° C.
T1 construct: purchased Carna Biosciences (p38α); Sino Biological (ATF2) 04-152; 11599-H20B
Description: The inhibitory effect of the compound on p38a-catalyzed ATF2 was evaluated by the HTRF method. The test compound was dissolved in DMSO to obtain a 10 mM stock solution and stored at −20° C. for future use. The initial concentration of the compound was 10 μM, with 0.25% DMSO, 5-fold serial dilution, 8 concentrations, and duplicate wells. The reaction buffer, consisting of 40 mM Tris pH 7.5, 20 mM MgCl2, 0.1 mg/mL BSA, and 50 μM DTT, was used to prepare 3.5×p38α (MAPK14, Carna Biosciences, 04-152) protein working solution, 3.5×Human ATF2 Protein (Sino Biological, 11599-H20B) working solution, and 3.5×ATP working solution. The reaction was terminated with 10 mM EDTA. The final 14 μL reaction system was performed in a 96-well plate (cisbio, 66PL96025), containing 0.29 ng/μL p38a, […] Human ATF2 Protein, and 25 µM ATP. After reacting at 20° C. for 35 min, the pre-prepared antibody solution (cibio, 63ADK015PEG, Phospho-ATF2 Eu Cryptate antibody, Phospho-ATF2 d2 antibody, diluted 40-fold with Detection buffer) was added to each well and incubated overnight at room temperature. The samples were then measured using a microplate reader (HTRF compatible reader). The concentration-effect curve was fitted using GraphPad Prism 8 software, and the compound concentration resulting in 50% inhibition, IC50, was calculated.

Row | SMILES | IC50
7 | Cc1cnc(-c2ccc(F)c([C@@](C)(O)CO)c2F)cc1-n1c(C)cc(OCc2ncc(F)cc2F)c(Cl)c1=O (single isomer, unassigned) [Compound 65-P4] | 4600 nM
8 | Cc1cnc(-c2cccc(C(=O)O)c2)cc1-n1c(C)cc(OCc2ncc(F)cc2F)c(Cl)c1=O [Compound 1] | > 20000 nM
9 | CNC(=O)c1cccc(-c2cc(-n3c(C)cc(OCc4ncc(F)cc4F)c(Cl)c3=O)c(C)cn2)c1 [Compound 2] | 10300 nM

target: T2, p38 MAPK/MK5 (Homo sapiens, UniProt Q16539); assay: In vitro activity assay of p38 MAPK/MK5 (Z-LYTE kinase assay kit); type: biochemical; settings: active p38α, inactive MK5, Ser/Thr 4; 4-hour reaction at 20° C.
T2 construct: purchased Carna (p38α); Abcam (MK5) 04-152; 217826
T2 sequence (Q16539 whole entry): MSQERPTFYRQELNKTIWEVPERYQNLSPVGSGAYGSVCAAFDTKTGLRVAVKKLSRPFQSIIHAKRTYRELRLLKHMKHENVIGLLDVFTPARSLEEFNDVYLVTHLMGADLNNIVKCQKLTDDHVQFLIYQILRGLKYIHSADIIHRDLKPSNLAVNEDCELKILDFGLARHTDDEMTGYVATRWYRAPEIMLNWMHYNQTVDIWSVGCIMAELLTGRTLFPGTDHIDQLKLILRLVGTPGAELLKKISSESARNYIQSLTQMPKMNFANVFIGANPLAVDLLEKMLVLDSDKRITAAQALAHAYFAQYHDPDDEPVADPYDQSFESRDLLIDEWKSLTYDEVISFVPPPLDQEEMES
Description: (§2) The inhibitory effect of the compound on p38 MAPK/MK5 was evaluated using the Z-LYTE kinase assay kit (Thermo, PV3177). The test compound was dissolved in DMSO to obtain a 10 mM stock solution and stored at −20° C. for future use. The initial concentration of the compound was […], with 1% DMSO, 5-fold serial dilution, 8 concentrations, and duplicate wells. […] After a 4-hour reaction at 20° C., Development Reagent A diluted 2048-fold was added to each well, followed by incubation at room temperature for 1 hour. The reaction was terminated by adding 5 µL of stop buffer, and the plate was read using a microplate reader (Ex. 400 nm, Em. 445 nm; Ex. 400 nm, Em. 520 nm). The concentration-effect curve was fitted using GraphPad Prism 8 software, and the compound concentration resulting in 50% inhibition, IC50, was calculated.

Row | SMILES | IC50
10 | Cc1cnc(-c2ccc(F)c([C@@](C)(O)CO)c2F)cc1-n1c(C)cc(OCc2ncc(F)cc2F)c(Cl)c1=O (single isomer, unassigned) [Compound 65-P4] | > 20000 nM
11 | Cc1cnc(-c2cccc(C(=O)O)c2)cc1-n1c(C)cc(OCc2ncc(F)cc2F)c(Cl)c1=O [Compound 1] | 6080 nM
12 | CNC(=O)c1cccc(-c2cc(-n3c(C)cc(OCc4ncc(F)cc4F)c(Cl)c3=O)c(C)cn2)c1 [Compound 2] | 3050 nM

system: TNF-α in human PBMC cells; assay: In vitro TNF-α activity assay in human PBMC cell supernatant (LPS, ELISA); type: cell-based; settings: Homo sapiens, PBMC, 24 h, LPS 100 ng/mL, read-out: p38 MAPK/TNF-α IC50
Description: The inhibitory effect of the compound on TNF-α in the supernatant of human PBMC cells was evaluated using an ELISA detection kit (Beyotime, PI518). The test compound was dissolved in DMSO to obtain a 10 mM stock solution and stored at −20° C. for future use. The initial concentration of the compound was […], followed by 5-fold serial dilution to obtain 6 concentrations. Cells were plated in duplicate, and ELISA was performed in single wells. The final concentration of DMSO was 0.4%. Alternatively, the initial concentration of the compound, dilution factor, number of concentration gradients, and replicates could be adjusted based on the specific screening conditions.
Fresh human peripheral blood mononuclear cells (PBMCs) (Sailybio) were seeded at a density of 2×10^5 cells per well in a 96-well plate (Corning, 3599), with each well containing 100 μL of RPMI-1640 (Gibco #A1049101)+10% FBS (Gibco, 10099141C), and incubated overnight at 37° C. under 5% CO2. Test compounds were added to the 96-well culture plate at a volume of 25 μL per well. After 1 hour, 5 μL of LPS was added to achieve a final concentration of 100 ng/mL. No LPS and compound were added to the negative control wells, and no compound was added to the positive control wells. The mixture was further incubated for 24 hours at 37° C. under 5% CO2. Subsequently, the cell culture supernatant was collected by centrifugation at 500 rcf for 8 minutes. The concentration of TNF-α was measured according to the operation manual of the ELISA kit. The concentration-effect curve was fitted using GraphPad Prism 8 software, and the compound concentration resulting in 50% inhibition, IC50, was calculated.

Row | SMILES | IC50
13 | Cc1cnc(-c2ccc(F)c([C@@](C)(O)CO)c2F)cc1-n1c(C)cc(OCc2ncc(F)cc2F)c(Cl)c1=O (single isomer, unassigned) [Compound 65-P4] | 4.5 nM
14 | CNC(=O)c1cccc(-c2cc(-n3c(C)cc(OCc4ncc(F)cc4F)c(Cl)c3=O)c(C)cn2)c1 [Compound 2] | 89 nM

system: not listed separately; assay: In vitro liver microsome stability, rat; type: in vitro ADME; settings: liver microsomes, 0.5 mg/mL microsomes, 1 μM compound, NADPH, 37° C., read-out: Rat liver microsomes Half-life T1/2
Description: as §1

Row | SMILES | half-life at 1 μM
15 | Cc1cnc(-c2ccc(F)c([C@@](C)(O)CO)c2F)cc1-n1c(C)cc(OCc2ncc(F)cc2F)c(Cl)c1=O (single isomer, unassigned) [Compound 65-P4] | > 4.66 h
16 | Cc1cnc(-c2cccc(C(=O)O)c2)cc1-n1c(C)cc(OCc2ncc(F)cc2F)c(Cl)c1=O [Compound 1] | > 4.66 h
17 | CNC(=O)c1cccc(-c2cc(-n3c(C)cc(OCc4ncc(F)cc4F)c(Cl)c3=O)c(C)cn2)c1 [Compound 2] | 4.17 h

target: T3, p38 MAPK/MK2 (Homo sapiens, UniProt Q16539); assay: In vitro activity assay of p38 MAPK/MK2 (Z-LYTE kinase assay kit); type: biochemical; settings: active p38α, inactive MK2, Ser/Thr 4; 1-hour reaction at 20° C.
T3 construct: purchased Carna (p38α); Abcam (MK2) 04-152; 79910
T3 sequence (Q16539 whole entry): as above
T3 sequence (P49137 whole entry partner): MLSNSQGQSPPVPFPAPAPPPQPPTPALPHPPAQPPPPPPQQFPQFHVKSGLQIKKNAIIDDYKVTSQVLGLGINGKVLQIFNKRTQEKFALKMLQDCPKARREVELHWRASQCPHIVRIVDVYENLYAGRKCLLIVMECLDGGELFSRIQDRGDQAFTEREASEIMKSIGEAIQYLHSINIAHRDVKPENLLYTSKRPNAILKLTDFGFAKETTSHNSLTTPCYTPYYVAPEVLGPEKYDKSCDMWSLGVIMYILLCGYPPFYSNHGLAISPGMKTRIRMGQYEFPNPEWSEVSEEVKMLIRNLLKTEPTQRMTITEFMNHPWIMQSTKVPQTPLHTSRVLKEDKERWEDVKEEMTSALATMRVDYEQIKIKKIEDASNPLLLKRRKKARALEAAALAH
Description: as §2, with “MAPK/MK2” for “MAPK/MK5”, “1-hour” for “4-hour”, “μL” for “µL”

Row | SMILES | IC50
18 | Cc1cnc(-c2ccc(F)c([C@@](C)(O)CO)c2F)cc1-n1c(C)cc(OCc2ncc(F)cc2F)c(Cl)c1=O (single isomer, unassigned) [Compound 65-P4] | 0.59 nM
19 | Cc1cnc(-c2cccc(C(=O)O)c2)cc1-n1c(C)cc(OCc2ncc(F)cc2F)c(Cl)c1=O [Compound 1] | 58.6 nM
20 | CNC(=O)c1cccc(-c2cc(-n3c(C)cc(OCc4ncc(F)cc4F)c(Cl)c3=O)c(C)cn2)c1 [Compound 2] | 62.4 nM
